Among the test systems are HS 578T breast; HOP-62 NSCLC; 786-0 renal; ACHN renal; UACC-62 melanoma; SK-OV-3 ovarian; UACC-257 melanoma.
Assay in all cases: inhibition of tumour cell growth, NCI panel, 48 h

Values joined by “and” are separate entries in the source; they are usually repeats but may differ in a detail not shown here. Equal entries are not always repeated.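 The compound was tested at five concentrations on cells cultured in 96-well plates, with a 48-hour exposure period. GI50 = concentration required for 50% inhibition of growth. The concentration for full growth arrest is given as TGI.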

`Cc1cc(Oc2cnc(=O)[nH]c2)cs1`: the TGI with HS 578T breast, in the test with HOP-62 NSCLC, in the test with 786-0 renal, with ACHN renal, in the test on UACC-62 melanoma and in the test with SK-OV-3 ovarian was above 100 µM throughout. The compound further gave a TGI in the test on UACC-257 melanoma above 100 µM.

For the compound `CN1CCC(C(=O)Nc2n[nH]c3nc(-c4ccc(O)cc4)c(Br)cc23)CC1`, the GI50 in the test with HS 578T breast is 1.15 µM and 0.208 µM; in the test on HOP-62 NSCLC it was 2.39 µM and 2.43 µM; with 786-0 renal it was 3.58 µM and 3.13 µM; in the test on ACHN renal it was 5.37 µM and 6.3 µM; in the test on UACC-62 melanoma it was 2.85 µM and 3.83 µM; with SK-OV-3 ovarian, 1.19 µM and 1.28 µM. Also, the GI50 in the test with UACC-257 melanoma is 4.3 µM and 6.17 µM. Moreover, the TGI with HS 578T breast was above 15.1 µM; in the test with HOP-62 NSCLC, > 22.6 µM and 15.8 µM; with 786-0 renal it was 21.4 µM and 24.8 µM; in the test with ACHN renal, above 25 µM; with UACC-62 melanoma, 6.87 µM and 8.81 µM; in the test with SK-OV-3 ovarian it was above 25 µM. The TGI in the test on UACC-257 melanoma was 12.3 µM and 14.6 µM.

With `O=C1c2cc(-c3ccccc3)ccc2-c2c1c1ccc([N+](=O)[O-])cc1c(=O)n2CCCBr`, the GI50 in the test on HS 578T breast is 10.5 µM; in the test with HOP-62 NSCLC it was above 30.2 µM; with 786-0 renal, above 31.7 µM; in the test with ACHN renal, above 36.3 µM; in the test on UACC-62 melanoma it was 49.4 µM; in the test with SK-OV-3 ovarian it was 33.1 µM. Besides, in the test with UACC-257 melanoma, the GI50 is above 50 µM. In addition, the TGI is above 40.7 µM with HS 578T breast; above 50 µM in the test on HOP-62 NSCLC; above 50 µM in the test with 786-0 renal; above 50 µM in the test on ACHN renal; above 50 µM in the test on UACC-62 melanoma; above 50 µM in the test with SK-OV-3 ovarian. Besides, the TGI with UACC-257 melanoma was above 50 µM.

`COc1cc2c(cc1OC)C(CC1(O)CCCCC1)N(S(=O)(=O)c1ccc(C)cc1)CC2` (stereo unspecified): the GI50 with HS 578T breast, with HOP-62 NSCLC, in the test on 786-0 renal, in the test on ACHN renal, in the test with UACC-62 melanoma and in the test with SK-OV-3 ovarian was above 10 µM each time. Further, in the test with UACC-257 melanoma, the GI50 was above 10 µM. In addition, the TGI with HS 578T breast, in the test on HOP-62 NSCLC, in the test on 786-0 renal, in the test with ACHN renal, in the test on UACC-62 melanoma and with SK-OV-3 ovarian was above 10 µM each time. For the same compound, the TGI in the test with UACC-257 melanoma was above 10 µM.

Regarding `COc1ccc(SC2c3ccc(C)cc3Oc3nc(N)c(C#N)c(N)c32)cc1` (stereo unspecified), the GI50 was 2.27 µM in the test on HS 578T breast; 1.71 µM in the test on HOP-62 NSCLC; 1.65 µM in the test on 786-0 renal; 1.76 µM in the test on ACHN renal; 1.6 µM in the test on UACC-62 melanoma; 1.78 µM in the test with SK-OV-3 ovarian. For the same compound, the GI50 in the test on UACC-257 melanoma was 1.99 µM. Also, the TGI with HS 578T breast worked out at 5.54 µM; in the test on HOP-62 NSCLC, 3.18 µM; in the test with 786-0 renal it was 3.01 µM; in the test on ACHN renal it was 3.15 µM; in the test with UACC-62 melanoma, 2.99 µM; in the test on SK-OV-3 ovarian, 3.17 µM. Further, in the test on UACC-257 melanoma, the TGI was 3.49 µM.

For `Cc1cccc(Cl)c1NC(=O)c1cnc(Nc2cc(N3CCOCC3)cc(N3CCOCC3)c2)s1`, the GI50 is 0.0151 µM in the test on HS 578T breast; 0.022 µM in the test on HOP-62 NSCLC; 0.0183 µM in the test with 786-0 renal; 0.00887 µM in the test with ACHN renal; 1.7 µM in the test with UACC-62 melanoma; 0.0178 µM in the test with SK-OV-3 ovarian. Besides, the GI50 in the test on UACC-257 melanoma was above 7.93 µM. Also, the TGI in the test on HS 578T breast is 0.157 µM; in the test with HOP-62 NSCLC it was above 10 µM; in the test with ACHN renal it was 0.171 µM; in the test with UACC-62 melanoma, above 10 µM; in the test on SK-OV-3 ovarian, 1.6 µM; with UACC-257 melanoma it was above 10 µM.

Take `COc1cc(F)cc([C@@H](CO)NC(=O)[C@@H](C)N2Cc3ccc(-c4nc(NC5CCOCC5)ncc4Cl)cc3C2=O)c1`: the GI50 in the test on HS 578T breast was 4.96 µM; in the test with HOP-62 NSCLC, 0.0519 µM; with 786-0 renal, 9.23 µM; in the test on ACHN renal, 1.54 µM; with UACC-62 melanoma, below 0.01 µM; with SK-OV-3 ovarian it was 3.25 µM. Further, the GI50 with UACC-257 melanoma was below 0.01 µM. Also, the TGI with HS 578T breast was above 81.9 µM; in the test on HOP-62 NSCLC, above 86.2 µM; in the test with 786-0 renal, above 100 µM; in the test on ACHN renal, 99.1 µM; in the test with UACC-62 melanoma, 0.0248 µM; with SK-OV-3 ovarian, above 100 µM. The same compound had a TGI in the test on UACC-257 melanoma of 0.0367 µM.

`CC(=O)C1COC(O)C1C` (stereo unspecified): the TGI came to 68.8 µM in the test on HS 578T breast; 33 µM in the test with HOP-62 NSCLC; 49.8 µM in the test on 786-0 renal; 80.9 µM in the test with ACHN renal; 27.2 µM in the test with UACC-62 melanoma; 82.3 µM in the test with SK-OV-3 ovarian. The compound also registered a TGI in the test with UACC-257 melanoma above 100 µM.

For `COc1ccc2nc3cc([N+](=O)[O-])ccc3c(NCCCN(CCO)CCO)c2c1`, the GI50 was 4.06 µM in the test with HS 578T breast; 11.4 µM in the test on HOP-62 NSCLC; 4.09 µM in the test with 786-0 renal; 10 µM with ACHN renal; 3.34 µM with UACC-62 melanoma; 12.7 µM with SK-OV-3 ovarian. Further, the GI50 in the test on UACC-257 melanoma was 2.82 µM. Further, the TGI with HS 578T breast amounted to 12.5 µM; in the test on HOP-62 NSCLC, 24.1 µM; in the test on 786-0 renal it was 21.1 µM; with ACHN renal, 23 µM; with UACC-62 melanoma, 11.6 µM; with SK-OV-3 ovarian, 17.2 µM. For the same compound, the TGI in the test on UACC-257 melanoma turned out to be 7.55 µM.

Source of the values: PubChem BioAssay (NCI).
